Consider 13 compounds from US6608086B2, “Dihydropyridines and new uses thereof” (Synaptic Pharmaceutical Corporation, priority 1993, dated 2003).

For assay [1], the target named is T1, α1B Human Adrenergic Receptor (Homo sapiens, UniProt P35368).
T1 construct: The entire coding region of α1B (1563 bp); expressed in transfected cells
T1 sequence (P35368 1-520): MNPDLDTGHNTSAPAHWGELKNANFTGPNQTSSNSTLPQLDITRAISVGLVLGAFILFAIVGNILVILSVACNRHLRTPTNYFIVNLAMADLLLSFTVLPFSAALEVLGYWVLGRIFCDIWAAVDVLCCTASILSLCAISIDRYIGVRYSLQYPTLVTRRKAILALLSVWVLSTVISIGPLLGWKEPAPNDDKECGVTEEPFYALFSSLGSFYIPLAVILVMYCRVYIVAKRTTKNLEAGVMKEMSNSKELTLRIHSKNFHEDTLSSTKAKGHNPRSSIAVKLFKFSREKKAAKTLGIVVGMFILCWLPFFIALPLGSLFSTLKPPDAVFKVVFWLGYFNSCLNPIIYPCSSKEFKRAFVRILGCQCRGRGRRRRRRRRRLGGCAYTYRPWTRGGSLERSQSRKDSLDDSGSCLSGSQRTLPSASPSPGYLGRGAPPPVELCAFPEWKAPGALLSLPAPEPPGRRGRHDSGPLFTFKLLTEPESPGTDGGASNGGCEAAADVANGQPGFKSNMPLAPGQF
Description: Radioligand binding, [3H]prazosin, cloned human α1B adrenergic receptor. In a few lines: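 Membranes from stably transfected LM(tk−) cells, resuspended in 50 mM Tris-HCl, 1 mM MgCl2, 0.1% ascorbic acid, pH 7.5, were incubated with 0.5 nM [3H]prazosin for 20 min at 37° C. Nonspecific binding defined with 10 μM phentolamine; bound ligand separated by GF/B filtration.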

For assay [2], the target named is T2, α1C Human Adrenergic Receptor (Homo sapiens, UniProt P35348).
T2 construct: The entire coding region of α1C (1401 bp); expressed in transfected cells
T2 sequence (P35348 1-466): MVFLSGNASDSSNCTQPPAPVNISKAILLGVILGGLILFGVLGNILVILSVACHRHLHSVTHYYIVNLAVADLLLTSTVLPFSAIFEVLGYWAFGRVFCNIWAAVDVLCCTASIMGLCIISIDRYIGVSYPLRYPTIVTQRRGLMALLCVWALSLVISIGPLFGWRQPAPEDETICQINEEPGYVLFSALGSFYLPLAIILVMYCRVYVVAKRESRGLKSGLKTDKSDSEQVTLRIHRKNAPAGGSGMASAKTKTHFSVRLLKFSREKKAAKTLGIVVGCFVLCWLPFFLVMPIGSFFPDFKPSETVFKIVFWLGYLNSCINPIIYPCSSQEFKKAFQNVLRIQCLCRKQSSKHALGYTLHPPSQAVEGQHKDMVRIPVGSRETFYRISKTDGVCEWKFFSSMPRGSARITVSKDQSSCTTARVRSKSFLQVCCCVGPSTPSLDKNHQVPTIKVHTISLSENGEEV
Description: Radioligand binding, [3H]prazosin, cloned human α1C adrenergic receptor. In a few lines:
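LM(tk−) membranes (stable human α1C); [3H]prazosin 0.5 nM; 37° C., 20 min; Tris-HCl 50 mM/MgCl2 1 mM/ascorbate 0.1%, pH 7.5; NSB 10 μM phentolamine; GF/B filtration.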

The target of assay [3] is T3, α2B receptor (Homo sapiens, UniProt P18089).
T3 construct: host or cells: LM(tk-) cells, line L-NGC-α2B
T3 sequence (P18089 1-450): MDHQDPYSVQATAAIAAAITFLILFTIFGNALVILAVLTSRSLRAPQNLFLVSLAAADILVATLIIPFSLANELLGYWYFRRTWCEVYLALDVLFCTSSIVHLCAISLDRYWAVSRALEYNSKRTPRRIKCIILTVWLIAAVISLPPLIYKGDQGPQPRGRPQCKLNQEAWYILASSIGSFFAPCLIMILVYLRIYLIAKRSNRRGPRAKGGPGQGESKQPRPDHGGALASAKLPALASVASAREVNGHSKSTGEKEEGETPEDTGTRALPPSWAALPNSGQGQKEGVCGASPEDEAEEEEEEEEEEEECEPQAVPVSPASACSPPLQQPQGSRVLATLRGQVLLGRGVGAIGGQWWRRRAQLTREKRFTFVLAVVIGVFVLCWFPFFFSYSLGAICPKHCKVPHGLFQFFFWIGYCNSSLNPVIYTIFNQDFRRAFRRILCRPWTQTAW
Description: Competition binding, [3H]rauwolscine, human α2B receptor. A digest of the protocol: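 Cell lysates from stably transfected LM(tk−) lines are resuspended in 25 mM glycylglycine (pH 7.6 at room temperature), incubated to equilibrium with 0.5 nM [3H]rauwolscine plus competitor, then filtered through GF/B filters; 10 μM phentolamine defines nonspecific binding.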

The mark [4] stands for this setting: cloned human receptor, LM(tk-) cell membranes, mean, read-out: PKi alpha-1 1b (converted).
The mark [5] stands for this setting: cloned human receptor, LM(tk-) cell membranes, mean, read-out: PKi alpha-1 1c (converted).
The mark [6] stands for this setting: cloned human receptor in LM(tk-) cell membranes, SEM and n in lines below, read-out: pKi alpha-1 1b (converted).
[7] abbreviates: cloned human receptor in LM(tk-) cell membranes, SEM and n in lines below, read-out: pKi alpha-1 1c (converted).
The mark [8] stands for this setting: [3H]rauwolscine, LM(tk-) cell line L-NGC-α2B, SEM and n in lines below, read-out: pKi alpha-2 2b (converted).
The mark [9] stands for this setting: [3H]rauwolscine, human receptor, LM(tk-) cell lysates, mean, read-out: PKi alpha-2 2b (converted).
[10] abbreviates: cloned human receptor in LM(tk-) cell membranes, SEM and n in lines below.

Counter-ions that a name gives are not always drawn. Like-named read-outs stand apart in the source and are kept apart here.

For the compound `CCC1=C(C(N)=O)C(c2ccc([N+](=O)[O-])cc2)C(C(=O)NCCCN2CCC(C(=O)OC)(c3ccccc3)CC2)=C(CC)N1` (stereo not drawn) [Example 200], the Ki in assay [1] (setting [4]) is 2000 nM; in assay [2] (setting [5]), 4.37 nM; in assay [3] (PKi alpha-2 2b), 1070 nM.
`CC(=O)C1=C(C)NC(CCCCN)=C(C(=O)NCCCN2CCC(c3ccccc3)(c3ccccc3)CC2)C1c1ccc([N+](=O)[O-])cc1` (stereo not drawn) [Example 176, 5-Acetyl-2-(4-aminobutyl)-1,4-dihydro-6-methyl-4-(4-nitrophenyl)-3-{N-[3-(4,4-diphenylpiperidin-1-yl)propyl]}carboxamidopyridine]: the Ki is 158 nM in assay [1] (PKi alpha-1 1b, cloned human receptor, LM(tk-) cell membranes, mean); 3.72 nM in assay [2] (PKi alpha-1 1c, cloned human receptor, LM(tk-) cell membranes, mean); 1200 nM in assay [3] (PKi alpha-2 2b, [3H]rauwolscine, human receptor, LM(tk-) cell lysates, mean).
For the compound `COC(=O)C1(c2ccccc2)CCN(CCCNC(=O)C2=C(CCCCN)NC(C)=C(C(N)=O)C2c2ccc([N+](=O)[O-])cc2)CC1` (stereo not drawn) [Example 177, 2-(4-Aminobutyl)-5-carboxamido-1,4-dihydro-3-{N-[3-(4-methoxycarbonyl-4-phenylpiperidin-1-yl)propyl]}carboxamido-6-methyl-4-(4-nitrophenyl)pyridine], the results for the Ki in assay [1] (setting [4]), in assay [2] (setting [5]) and in assay [3] (PKi alpha-2 2b) were 759 nM, 4.68 nM and 2880 nM, respectively.
`CCNC(=O)C1=C(CC)NC(CC)=C(C(=O)NCCCN2CCC(C(=O)OCC)(c3ccccc3)CC2)C1c1ccc([N+](=O)[O-])cc1` (stereo not drawn) [Example 182, 2,6-Diethyl-1,4-dihydro-3-{N-[3-(4-ethoxycarbonyl-4-phenylpiperidin-1-yl)propyl]}carboxamido-5-(N-ethyl)carboxamido-4(4-nitrophenyl)pyridine]: the Ki in assay [1] (setting [4]) was 1120 nM; in assay [2] (setting [5]) it was 2.24 nM; in assay [3] (PKi alpha-2 2b) it was 912 nM.
Consider `CCC1=C(C(=O)NN2CCOCC2)C(c2ccc([N+](=O)[O-])cc2)C(C(=O)NCCCN2CCC(c3ccccc3)(c3ccccc3)CC2)=C(COC)N1` (stereo not drawn) [Example 248, 6-Ethyl-1,4-dihydro-2-((methyl)oxy)methyl-5-N-(morpholin-4yl)carboxamido-4-(4-nitro)phenyl-3-(N-(3-(4,4-diphenylpiperidin-1-yl)propyl))carboxamidopyridine], for which the Ki in assay [1] (cloned human α1B receptor, LM(tk-) cell membranes, read-out: PKi alpha-1 1b (converted)) is 1510 nM; in assay [2] (cloned human α1C receptor, LM(tk-) cell membranes, read-out: PKi alpha-1 1c (converted)) it was 174 nM; in assay [3] ([3H]rauwolscine, human α2B receptor, LM(tk-) cells, read-out: PKi alpha-2 2b (converted)), 1150 nM.
`CCC1=C(C(=O)NC)C(c2ccc([N+](=O)[O-])cc2)C(C(=O)NCCCN2CCC(C#N)(c3ccccc3)CC2)=C(CC)N1` (stereo not drawn) [Example 126, 3-{N-[3-(4-Cyano-4-phenylpiperidin-1-yl)propyl]}carboxamido-1,4-dihydro-2,6-diethyl-5-(1-methyl)carboxamido-4-(4-nitrophenyl)pyridine]: the “pKi alpha-1 1b” value in assay [1] (cloned human α1B receptor, LM(tk−) cell membranes) is given as 5.37. Further, in assay [2] (cloned human α1C receptor, LM(tk−) cell membranes), the “pKi alpha-1 1c” value is recorded as 7.95. In addition, the “pKi alpha-2 2b” value in assay [3] ([3H]rauwolscine, human α2B receptor, LM(tk−) cells) is reported as 5.63.
Consider `COC(=O)C1=C(C)NC(C)=C(C(=O)NCCCN2CCC(c3ccccc3)CC2)C1c1ccc([N+](=O)[O-])cc1` (single isomer, unassigned; (-)) [(−)-45, 1,4-Dihydro-3-methoxycarbonyl-2,6-dimethyl-4-(4-nitrophenyl)-5-{N-[3-(4-phenylpiperidin-1-yl)propyl]}carboxamidopyridine hydrochloride hemihydrate], for which the values for the Ki in assay [1] (setting [6]), in assay [2] (setting [7]) and in assay [3] (setting [8]) were 9.12 nM, 0.182 nM and 229 nM, respectively.
`COC(=O)C1=C(C)NC(C)=C(C(=O)NCCCN2CCCCC2)C1c1ccc([N+](=O)[O-])cc1` (stereo not drawn) [Example 51, 1,4-Dihydro-3-methoxycarbonyl-2,6-dimethyl-4-(4-nitrophenyl)-5-{N-[3-(piperidin-1-yl)propyl]}carboxamidopyridine hydrochloride etherate]: the Ki in assay [1] (setting [6]) is 5010 nM; in assay [2] (setting [7]) it was 479 nM; in assay [3] (setting [8]), 513 nM.
On to `CCOC(=O)C1(c2ccccc2)CCN(CCCNC(=O)C2=C(COCCN)NC(CC)=C(C(N)=O)C2c2ccc([N+](=O)[O-])cc2)CC1` (stereo not drawn) [Example 193, 2-[(2-Aminoethoxy)methyl]-5-carboxamido-3-{N-[3-(4-ethoxycarbonyl-4-phenylpiperidin-1-yl)propyl]}carboxamido-1,4-dihydro-6-ethyl-4-(4-nitrophenyl)pyridine], for which the Ki in assay [1] (setting [4]) is 1740 nM; in assay [2] (setting [5]) it was 1.58 nM; in assay [3] (setting [9]), 2400 nM.
In the same order, the values of `CCC1=C(C(N)=O)C(c2ccc([N+](=O)[O-])cc2)C(C(=O)NCCCN2CCC(C(=O)OC)(c3ccccc3)CC2)=C(COCCN)N1` (stereo not drawn) [Example 234, 2-((2-Aminoethyl)oxy)methyl-5-carboxamido-6-ethyl-1,4-dihydro-3-(N-(3-(4-methoxycarbonyl-4-phenylpiperidin-1-yl)propyl)) carboxamido-4-(4-nitro)phenylpyridine] are 1290 nM, 1.62 nM and 4900 nM.
Taken in the same sequence, the figures for `CCOC(=O)C1(c2ccccc2)CCN(CCCNC(=O)C2=C(COCCN)NC(CC)=C(C(=O)O)C2c2ccc([N+](=O)[O-])cc2)CC1` (stereo not drawn) [Example 196, 2-[(2-Aminoethoxy)methyl]-3-{N-[3-(4-ethoxycarbonyl-4-phenylpiperidin-1-yl)propyl]}carboxamido-1,4-dihydro-6-ethyl-4-(4-nitrophenyl)pyridine-5-carboxylic Acid] were 3630 nM, 38.9 nM and 4680 nM.
Regarding `CCNC(=O)C1=C(CC)NC(COCCN)=C(C(=O)NCCCN2CCC(C(=O)OCC)(c3ccccc3)CC2)C1c1ccc([N+](=O)[O-])cc1` (stereo not drawn) [Example 192, 2-[(2-Aminoethoxy)methyl]-3-{N-[3-(4-ethoxycarbonyl-4-phenyl-piperidin-1-yl)propyl]}carboxamido-1,4-dihydro-6-ethyl-5-(N-ethyl)carboxamido-4-(4-nitrophenyl)pyridine], the Ki in assay [1] (setting [4]) was 1860 nM; in assay [2] (setting [5]), 3.09 nM; in assay [3] (setting [9]), 6170 nM.
As for `CNC(=O)C1=C(C)NC(C)=C(C(=O)NCCCN2CCC(c3ccccc3)(c3ccccc3)CC2)C1c1ccc([N+](=O)[O-])cc1` (stereo not drawn) [Example 38, 1,4-Dihydro-2,6-dimethyl-5-(N-methyl)carboxamido-4-(4-nitrophenyl)-3-{N-[3-(4,4-diphenylpiperidin-1-yl)propyl]}carboxamidopyridine], the “pKi alpha-1 1b” value in assay [1] (setting [10]) came out at 6.38. For the same compound, the “pKi alpha-1 1c” value in assay [2] (setting [10]) was found to be 8.50. Further, the “pKi alpha-2 2b” value in assay [3] is reported as 6.04.
